Laboratory results as given in patent publication US20240246905A1 (University of Leicester, priority 2021, published 2024).
In brackets after ≈: the same amount, converted by molar mass.

What was measured:
HEK293 cells = test: Cytotoxicity assay, resazurin (CO-ADD)
Description: The cytotoxicity studies were performed by CO-ADD (The Community for Open Antimicrobial Drug Discovery), funded by the Wellcome trust (UK) and the University of Queensland, Australia.^(28) In this study, the compounds were screened against a human embryonic kidney cell line, HEK293, at a set concentration of 32 μg/mL.
DMEM supplemented with 10% FBS was used as growth media and the cells were incubated together with the compounds for 20 hours at 37° C. in 5% CO2.
Cytotoxicity (or cell viability) was measured by fluorescence, excitation: 560/10 nm, emission: 590/10 nm (F560/590), after addition of 5 μL of 25 μg/mL Resazurin (2.3 μg/mL final concentration) and after incubation for further 3 h at 37° C. in 5% CO2. The fluorescence intensity was measured using a Tecan M1000 Pro monochromator plate reader, using automatic gain calculation CC50 (concentration at 50% cytotoxicity) were calculated by curve fitting the inhibition values vs. log(concentration) using sigmoidal dose-response function, with variable fitting values for bottom, top and slope. The curve fitting was implemented using Pipeline Pilot's dose-response component.

[1] = system: various Staphylococcus aureus strains; test: Disc diffusion, Staphylococcus aureus strain study; type: cell-based; settings: Staphylococcus aureus, 500 μg/mL
Description: At this point in the study it was decided to perform a disc diffusion assay study on 50 S. aureus strains. […] Moreover, by employing a range of mutant strains of S. aureus with specific gene-deletions, it was believed that if particular strains were resistant to the lead compounds, it could provide insights on the likely protein target of the lead antibiotics. However, all six of the compounds utilized in this study were able to inhibit growth of all 50 strains of S. aureus assayed at the chosen concentration of 500 μg/mL concentration (Table 5).
E. coli DH5α, P. aeruginosa PA01 and the 53 S. aureus strains were recovered from frozen (−80° C.) glycerol (15% v/v) stocks on Lysogeny agar (LA)—Gram negative and trypticase soy agar (TSA)—plates at 37° C. for 24 hours. Single colonies were placed in either 3 mL Lysogeny broth (LB)—Gram negative or trypticase soy broth (TSB)—Gram positive and incubated at 37° C., 250 rpm for 18 hours.
The antibiotic activity was determined using a Kirby-Bauer method according to Clinical Standard Laboratory Institute (CSLI) Guidelines (2017). Briefly, 180 μL of a 1 in 200 dilution (in LB or TSB) of overnight cultures of selected Gram negative and Gram positive bacteria were applied to an agar plate containing the solid growth medium, Mueller-Hinton agar (MHA). Sterile discs, inoculated with 50 μL of antibiotic, were first added to the agar plate before the plates were incubated for 24 hours at 37° C. Following incubation, the zone of inhibition (if it existed) was recorded.

MSSA 476 [2] = test: Disc diffusion (Kirby-Bauer), zone of inhibition; type: cell-based, Staphylococcus aureus; settings: Staphylococcus aureus, 500 μg/mL, '/' = no zone, read-out: Zone of inhibition
How it was run: (§1)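 Kirby-Bauer per CLSI 2017: 1 in 200 dilutions of overnight cultures (LB for Gram-negatives, TSB for Gram-positives) spread on Mueller-Hinton agar. Discs loaded with 50 μL antibiotic were added and plates incubated 24 h at 37 °C. Zone of inhibition recorded.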

MRSA 252 [3] = test: Disc diffusion (Kirby-Bauer), zone of inhibition; type: cell-based, Staphylococcus aureus; settings: Staphylococcus aureus, 500 μg/mL, '/' = no zone, read-out: Zone of inhibition
How it was run: as §1

red blood cells = test: Hemolysis assay (CO-ADD); type: cell-based; settings: 32 μg/mL highest concentration tested
Description: A problem often encountered by emerging drugs is hemolysis, also known as drug-induced immune hemolytic anemia.

MSSA 476 [4] = test: MIC, broth micro-dilution; type: cell-based, Staphylococcus aureus; settings: Staphylococcus aureus, MSSA, read-out: MIC
How it was run: (§2)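 Broth micro-dilution followed CLSI 2017: 1:2 antibiotic dilutions in TSB were inoculated at 5×10^5 CFU/mL. OD was recorded every 12 min over 18 h at 37 °C, and MIC was derived from sigmoidal dose-response fits.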

MRSA 252 [5] = test: MIC, broth micro-dilution; type: cell-based, Staphylococcus aureus; settings: Staphylococcus aureus, read-out: MIC
How it was run: as §2

[6] = system: Staphylococcus aureus 15981; test: Disc diffusion (Kirby-Bauer), zone of inhibition; type: cell-based; settings: Staphylococcus aureus 15981; 500 μg/mL; '/' = no zone; read-out: Zone of inhibition
How it was run: as §1

Escherichia coli DH5α = test: Disc diffusion (Kirby-Bauer), zone of inhibition; type: cell-based; settings: Escherichia coli DH5α; 500 μg/mL; '/' = no zone; read-out: Zone of inhibition
How it was run: as §1

SMILES: [C-]#[N+]C=Cc1ccc(O)c(Br)c1 [Compound 14]
- Concentration toxic to HEK 293 cells (HEK293 cells; HEK 293): >32000 ng/mL
- toxicity towards the HEK293 cell line (in words) (HEK293 cells; set concentration of 32 μg/mL): no toxicity
- zone of inhibition at 500 µg/mL ([1]; strain ASARM 61): 22 mm
- zone of inhibition at 500 µg/mL ([1]; strain ASARM 70): 20 mm
- zone of inhibition at 500 µg/mL ([1]; strain ASARM 71): 22 mm
- zone of inhibition at 500 µg/mL ([1]; strain ASARM 72): 20 mm
- zone of inhibition at 500 µg/mL ([1]; strain ASARM 73): 20 mm
- zone of inhibition at 500 µg/mL ([1]; strain ASARM 75): 20 mm
- zone of inhibition at 500 µg/mL ([1]; strain ASARM 76): 22 mm
- zone of inhibition at 500 µg/mL ([1]; strain ASARM 77): 22 mm
- zone of inhibition at 500 µg/mL ([1]; strain ASARM 79): 24 mm
- zone of inhibition at 500 µg/mL ([1]; strain ASARM 80): 25 mm
- zone of inhibition at 500 µg/mL ([1]; strain EOE 3): 20 mm
- zone of inhibition at 500 µg/mL ([1]; strain EOE 23): 22 mm
- zone of inhibition at 500 µg/mL ([1]; strain EOE 30): 22 mm
- zone of inhibition at 500 µg/mL ([1]; strain EOE 35): 18 mm
- zone of inhibition at 500 µg/mL ([1]; strain EOE 41): 20 mm
- zone of inhibition at 500 µg/mL ([1]; strain EOE 42): 18 mm
- zone of inhibition at 500 µg/mL ([1]; strain EOE 45): 20 mm
- zone of inhibition at 500 µg/mL ([1]; strain EOE 52): 25 mm
- zone of inhibition at 500 µg/mL ([1]; strain EOE 54): 19 mm
- zone of inhibition at 500 µg/mL ([1]; strain EOE 57): 20 mm
- zone of inhibition at 500 µg/mL ([1]; strain S139_7_7): 20 mm
- zone of inhibition at 500 µg/mL ([1]; strain S197_1_1): 25 mm
- zone of inhibition at 500 µg/mL ([1]; strain S197_1_8): 22 mm
- zone of inhibition at 500 µg/mL ([1]; strain S197_1_9): 22 mm
- zone of inhibition at 500 µg/mL ([1]; strain S197_1_10): 22 mm
- zone of inhibition at 500 µg/mL ([1]; strain S295_1_1): 22 mm
- zone of inhibition at 500 µg/mL ([1]; strain S295_1_2): 14 mm
- zone of inhibition at 500 µg/mL ([1]; strain S295_1_3): 20 mm
- zone of inhibition at 500 µg/mL ([1]; strain S364_5_11): 24 mm
- zone of inhibition at 500 µg/mL ([1]; strain S364_5_12): 24 mm
- zone of inhibition at 500 µg/mL ([1]; strain Sa_TPS 3026): 16 mm
- zone of inhibition at 500 µg/mL ([1]; strain Sa_TPS 3072): 18 mm
- zone of inhibition at 500 µg/mL ([1]; strain Sa_TPS 3092): 24 mm
- zone of inhibition at 500 µg/mL ([1]; strain Sa_TPS 3097): 18 mm
- zone of inhibition at 500 µg/mL ([1]; strain Sa_TPS 3103): 26 mm
- zone of inhibition at 500 µg/mL ([1]; strain Sa_TPS 3104): 22 mm
- zone of inhibition at 500 µg/mL ([1]; strain Sa_TPS 3106): 20 mm
- zone of inhibition at 500 µg/mL ([1]; strain Sa_TPS 3118): 18 mm
- zone of inhibition at 500 µg/mL ([1]; strain Sa_TPS 3133): 18 mm
- zone of inhibition at 500 µg/mL ([1]; strain Sa_TPS 3134): 18 mm
- zone of inhibition at 500 µg/mL ([1]; strain USFL 008): 17 mm
- zone of inhibition at 500 µg/mL ([1]; strain USFL 009): 16 mm
- zone of inhibition at 500 µg/mL ([1]; strain USFL 012): 20 mm
- zone of inhibition at 500 µg/mL ([1]; strain USFL 016): 18 mm
- zone of inhibition at 500 µg/mL ([1]; strain USFL 018): 18 mm
- zone of inhibition at 500 µg/mL ([1]; strain USFL 020): 16 mm
- zone of inhibition at 500 µg/mL ([1]; strain USFL 021): 18 mm
- zone of inhibition at 500 µg/mL ([1]; strain USFL 028): 18 mm
- zone of inhibition at 500 µg/mL ([1]; strain USFL 035): 19 mm
- zone of inhibition at 500 µg/mL ([1]; strain USFL 054): 18 mm
- zone of inhibition at 500 µg/mL (MSSA 476 [2]): 24 mm
- zone of inhibition at 500 µg/mL (MRSA 252 [3]): 24 mm
- Hemolytic activity (HC10) (red blood cells): >32 µg/mL
- MIC (MSSA 476 [4]): 242 µg/mL (≈ 1080 µM)
- MIC (MRSA 252 [5]): 44 µg/mL (≈ 196 µM)
- zone of inhibition at 500 µg/mL [6]: 28 mm
- zone of inhibition at 500 µg/mL (Escherichia coli DH5α): 26 mm
